Experiment [1] concerns the target T1, acetylcholinesterase (AChE) (Electrophorus electricus, UniProt O42275).
T1 construct: purchased Sigma-Aldrich Co. (St. Louis, MO, USA)
In words: biochemical. Format: biochemical. The conditions noted are these: mean ± SD, n = 3. The source says: (§1) Methanol (MeOH), ethanol (EtOH), n-hexane (Hx), dichloromethane (DCM), ethyl acetate (EA), n-butanol (BuOH) (Samchun Pure Chemical, Pyeongtaek, Gyeonggi, Korea) and distilled water were used for extraction, fractionation, and open column chromatography. Open column chromatography used silica gel 60 (40–63 μm; Merck, Darmstadt, Germany), Sephadex LH-20 (25–100 μm; Pharmacia, Stockholm, Sweden), MCI CHP 20P (Supelco, St. Louis, MO, USA), and octadecyl-silica (ODS) gel (400–500 mesh; Waters, Milford, MA, USA). Methanol-d4 (CD3OD) and dimethyl sulfoxide-d6 (DMSO-d6) were used for NMR analysis. The molecular weight was determined by ultra-high-performance liquid chromatography (UPLC) and high-resolution mass spectrometry (HRMS) by connecting an electrospray ionization hybrid linear trap-quadruple-Orbitrap MS system (ESI/LTQ-Orbitrap) to an Ultimate 3000 rapid separation liquid chromatography (RSLC) system (Thermo, Darmstadt, Germany). A TECAN Sunrise microplate reader and Infinite F200 pro (Männedorf, Zürich, Switzerland) were used for absorbance and fluorescence, respectively. High performance liquid chromatography (HPLC) was performed using Waters 2695 system pump and Waters 996 Photodiode array detector (Waters, Milford, MA, USA); data was extracted with Empower Pro 2.0 software. The separation column was a Waters Kromasil C18 column (4.6 × 250 mm, 5 μm). HPLC-grade solvents (e.g., acetonitrile and distilled water (H2O)) were purchased from J. T. Baker® (Phillipsburg, PA, USA). HPLC-grade acetic acid was purchased from Fisher Chemical (Janssen Pharmaceuticalaan, Geel, Belgium). In addition, analytical-grade dimethyl sulfoxide (DMSO), used as a solvent in the bioassay, was purchased from DEAJUNG Chemical (Siheung, Gyeonggi, Korea). Reagents and solvents, including AChE from electric eel, acetylthiocholine iodide (ATCh), BChE from equine serum, S-butyrylthiocholine iodide (BTCh), 5,5′- dithiobis [2-nitrobenzoic acid] […] The BACE1 (β-secretase) FRET assay kit was purchased from Pan Vera Co. (Madison, WI, USA).
(§2) The inhibitory activities of the test samples against ChE (AChE and BChE) were evaluated using the spectrophotometric method developed in a previous study. ATCh and BTCh were used as substrates to measure the inhibitory activities of AChE and BChE, respectively. The assay mixture contained 0.1 M sodium phosphate buffer (pH 7.8), 0.3 U/mL AChE or BChE, 0.5 mM DTNB, 0.6 mM ATCh or BTCh, and the tested sample solution that were mixed and incubated for 15 min at room temperature. […] Reactions started on addition of 10 μL of DTNB and 10 μL of either ATCh or BTCh. The ChE inhibitory activity was monitored based on the formation of the yellow 5-thio-2-nitrobenzoate anion at 412 nm for 15 min that was due to the reaction of DTNB and thiocholine released from ATCh or BTCh. All reactions were measured in 96-well microplates and tested in triplicate. The percentage of inhibition (%) was estimated using the following formula: {(Ac − As)/Ac} × 100, where Ac is the enzyme activity without the test sample and As is the enzyme activity with the test sample.

In experiment [2] the target is T2, butyrylcholinesterase (BChE) (Equus caballus, UniProt P81908).
T2 construct: BChE from equine serum; purchased Sigma-Aldrich Co. (St. Louis, MO, USA); host or cells: equine serum
T2 sequence (P81908 whole entry): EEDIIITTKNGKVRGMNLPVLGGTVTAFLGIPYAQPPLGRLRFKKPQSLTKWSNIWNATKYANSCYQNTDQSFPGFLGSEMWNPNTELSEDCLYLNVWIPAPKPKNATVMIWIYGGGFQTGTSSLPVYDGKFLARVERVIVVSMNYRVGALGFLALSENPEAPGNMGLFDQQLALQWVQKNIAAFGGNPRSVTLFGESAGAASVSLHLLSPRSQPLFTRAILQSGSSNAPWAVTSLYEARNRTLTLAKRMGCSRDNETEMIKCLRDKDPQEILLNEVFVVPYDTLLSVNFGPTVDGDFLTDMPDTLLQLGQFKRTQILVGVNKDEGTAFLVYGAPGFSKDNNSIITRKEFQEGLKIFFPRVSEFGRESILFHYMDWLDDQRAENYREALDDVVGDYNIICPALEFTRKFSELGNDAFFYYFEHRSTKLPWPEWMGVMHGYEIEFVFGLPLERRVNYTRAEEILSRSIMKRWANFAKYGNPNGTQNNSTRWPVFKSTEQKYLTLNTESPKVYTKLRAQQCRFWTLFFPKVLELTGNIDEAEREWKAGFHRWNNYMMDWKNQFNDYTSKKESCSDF
The experiment is described as follows: biochemical. Conditions: isolated compounds, mean ± SD, n = 3.
Source text: as §1, §2

Experiment [3] deals with T3, β-site amyloid precursor protein cleaving enzyme 1 (BACE1) (Homo sapiens, UniProt P56817).
T3 construct: purchased Pan Vera Co. (Madison, WI, USA)
T3 sequence (P56817 22-501 limits assumed): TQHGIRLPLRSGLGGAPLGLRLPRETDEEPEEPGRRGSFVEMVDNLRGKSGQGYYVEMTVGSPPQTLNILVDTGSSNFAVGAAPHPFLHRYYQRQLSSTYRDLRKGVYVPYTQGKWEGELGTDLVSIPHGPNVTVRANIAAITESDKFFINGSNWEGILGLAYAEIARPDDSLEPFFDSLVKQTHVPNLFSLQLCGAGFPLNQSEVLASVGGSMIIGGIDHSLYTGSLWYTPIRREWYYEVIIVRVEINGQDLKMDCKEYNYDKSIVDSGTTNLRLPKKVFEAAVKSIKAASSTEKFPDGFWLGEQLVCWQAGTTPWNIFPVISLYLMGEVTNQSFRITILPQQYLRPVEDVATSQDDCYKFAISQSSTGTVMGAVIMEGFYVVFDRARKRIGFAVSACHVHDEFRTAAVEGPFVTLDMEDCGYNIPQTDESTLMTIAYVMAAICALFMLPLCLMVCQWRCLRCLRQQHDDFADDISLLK
The experiment is described as follows: BACE1 (β-secretase) FRET enzyme assay. Format: biochemical. The conditions noted are these: mean ± SD, n = 3.
Source text: as §1
The BACE1 enzyme assay was performed in accordance with the manufacturer’s recommended protocol, with minor modifications. Briefly, the assay mixture contained 1.0 U/mL of BACE1, 50 mM sodium acetate buffer (pH 4.5), the substrate (750 nM Rh-[…]-Quencher in 50 mM ammonium bicarbonate), and samples. […] The reaction mixture was incubated for 60 min at 25 °C in the dark. Prior to measurement, stop solution (2.5 M sodium acetate) was added to the assay mixture. […] All reactions were measured in black 96-well microplates and tested in triplicate. The percentage of inhibition (%) was obtained using the following formula: [1 − (S60 − S0)/(C60 − C0)] × 100, where C60 is the fluorescence of the control after 60 min of incubation, C0 is the initial fluorescence of the control, S60 is the fluorescence of the tested sample after 60 min of incubation, and S0 is the initial fluorescence of the tested sample. BACE1 inhibitory activity assay of each sample was presented in terms of IC50, as calculated from the log dose inhibition curve.

Another experiment concerns neuroinflammation. Also on record: method as in PMID 27623545. The conditions noted are these: for the treatment of AD; cited from earlier work.
Experiment [4] concerns formation of advanced glycation end-product (AGE). The experiment is described as follows: Inhibition of formation of AGE (BSA with fructose and glucose, fluorescence). The conditions noted are these: mean ± SD, n = 3; for IC50: isolated compounds. Format: biochemical. As for the experimental part:
The inhibitory activity of the formation of AGE was measured with a spectrophotometric method developed previously, with slight modifications. Briefly, the assay mixture contained 50 mM phosphate buffer (pH 7.4) with 0.02% sodium azide, 0.4 M fructose and glucose, bovine serum albumin (10 mg/mL), and the sample. Next, the assay mixture was incubated at 60 °C for 2 days. After incubation, 200 μL of the reaction product was measured at excitation and emission wavelengths of 350 and 450 nm, respectively. All samples and positive control (aminoguanidine) were dissolved in 10% analytical-grade DMSO at five different final concentrations. All reactions were measured in black 96-well microplates and tested in triplicate. The percentage of inhibition (%) of the formation of AGE was estimated using the following formula: {(Ac − As)/Ac} × 100, where Ac is the fluorescence of the control and As is the fluorescence of the sample. Inhibition of the formation of AGE of each sample was presented in terms of IC50, as calculated from the log dose-inhibition curve.

Where [5] appears, read: isolated compounds, read-out: IC50 AChE.
The mark [6] stands for this setting: isolated compounds, read-out: IC50 BACE1.

The structures appear in SMILES notation. In brackets after ≈: the same amount, converted by molar mass. Read-outs that look alike come from different tables or passages of the source. Bounds are passed on as bounds.

T1 sequence (O42275 24-633): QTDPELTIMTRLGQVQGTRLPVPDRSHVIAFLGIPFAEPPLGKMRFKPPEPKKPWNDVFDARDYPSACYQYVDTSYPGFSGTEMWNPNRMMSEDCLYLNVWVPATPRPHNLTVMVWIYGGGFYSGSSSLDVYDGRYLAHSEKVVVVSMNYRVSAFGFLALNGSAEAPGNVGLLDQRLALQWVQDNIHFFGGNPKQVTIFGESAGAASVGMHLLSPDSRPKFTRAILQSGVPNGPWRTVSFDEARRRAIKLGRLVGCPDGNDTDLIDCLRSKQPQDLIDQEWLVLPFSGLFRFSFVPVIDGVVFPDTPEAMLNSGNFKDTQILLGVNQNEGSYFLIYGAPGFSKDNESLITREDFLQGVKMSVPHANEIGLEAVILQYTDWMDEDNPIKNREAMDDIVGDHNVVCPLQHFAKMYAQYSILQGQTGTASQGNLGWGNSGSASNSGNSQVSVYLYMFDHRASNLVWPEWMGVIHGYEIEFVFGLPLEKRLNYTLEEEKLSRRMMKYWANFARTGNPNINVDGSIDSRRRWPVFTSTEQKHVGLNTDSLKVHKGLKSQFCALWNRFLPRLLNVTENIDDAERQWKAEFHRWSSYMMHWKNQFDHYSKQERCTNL

The term IC50 denotes the concentration at which inhibition is half-maximal. Regarding `COc1ccc2cc3[n+](cc2c1OC)CCc1cc2c(cc1-3)OCO2` [Berberine, berberine, reference compound], the half-inhibitory concentration (IC50) is 0.327 µM in experiment [1] (IC50 AChE, extract and fractions); 0.31 ± 0.01 µM in experiment [1] (IC50 AChE, isolated compounds).
Take `COC(=O)C1=CO[C@@H](O[C@@H]2O[C@H](CO)[C@@H](O)[C@H](O)[C@H]2O)[C@@H]2C(CO)=C[C@H](OC)[C@H]12` [Compound 6, 6-O-Methyldeacetylasperulosidic acid methyl ester]: the IC50 in experiment [1] (setting [5]) is 81.1 ± 5.58 µM; in experiment [2] (read-out: IC50 BChE) it was 32.2 ± 2.8 µM; in experiment [3] (IC50 BACE1, isolated compounds) it was > 500 µM.
In the case of `COC(=O)C1=CO[C@@H](O[C@@H]2O[C@H](CO)[C@@H](O)[C@H](O)[C@H]2O)[C@@H]2C(CO)=C[C@H](O)[C@H]12` [Compound 4, deacetylasperulosidic acid methyl ester], the figures for the IC50 in experiment [1] (setting [5]), in experiment [2] (read-out: IC50 BChE) and in experiment [3] (setting [6]) were 172 ± 20.6 µM, 17.6 ± 0.78 µM and > 500 µM, respectively.
Regarding `O=c1c(O[C@@H]2O[C@H](CO)[C@@H](O)[C@H](O)[C@H]2O[C@@H]2O[C@H](CO)[C@@H](O)[C@H](O)[C@H]2O)c(-c2ccc(O)c(O)c2)oc2cc(O)cc(O)c12` [compound β, quercetin-3-O-sophoroside], the neuroinflammation inhibitory activity result in the experiment on neuroinflammation is given as “does not show effective neuroinflammation inhibitory activity”.
For `COc1cc(/C=C/C(=O)OC[C@H]2O[C@@H](O[C@H]3[C@H](Oc4c(-c5ccc(O)c(O)c5)oc5cc(O)cc(O)c5c4=O)O[C@H](CO)[C@@H](O)[C@@H]3O)[C@H](O)[C@@H](O)[C@@H]2O)ccc1O` [Compound 10, quercetin-3-O-[2″-O-(6‴-O-E-feruloyl)-β-D-glucopyranosyl]-β-D-glucopyranoside], the IC50 in experiment [1] (setting [5]) came to 46.2 ± 1.59 µM; in experiment [2] (read-out: IC50 BChE), 13.8 ± 0.37 µM; in experiment [4] it was 2.71 ± 0.06 µM; in experiment [3] (IC50 BACE1, isolated compounds) it was 4.49 ± 1.86 µM.
Regarding `CC(=O)OCC1=C[C@@H]2OC(=O)C3=CO[C@@H](O[C@@H]4O[C@H](CO)[C@@H](O)[C@H](O)[C@H]4O)[C@H]1[C@@H]32` [Compound 5, asperuloside], the IC50 in experiment [1] (IC50 AChE, isolated compounds) was 259 ± 7.48 µM; in experiment [2] (IC50 BChE), > 500 µM; in experiment [4], > 1000 µM; in experiment [3] (IC50 BACE1, isolated compounds), > 500 µM.
As for `N=C(N)NN` [AMG, aminoguanidine, reference compound], the “IC50 AGE Formation” value in experiment [4] (extract and fractions) was determined as 131.92 ± 11.24 µg/mL (≈ 1780 µM).
Turning to `COC(=O)C1=CO[C@@H](O[C@@H]2O[C@H](CO)[C@@H](O)[C@H](O)[C@H]2O)[C@@H]2C(CO)=C[C@@H](OC)[C@H]12` [Compound 7, 6-O-Methylscandoside methyl ester], the “IC50 AChE” value in experiment [1] (isolated compounds) is given as “did not inhibit AChE”. Further, the IC50 in experiment [2] (read-out: IC50 BChE) was 11.6 ± 0.68 µM; in experiment [3] (IC50 BACE1, isolated compounds), > 500 µM.
Turning to `COC(=O)C1=CO[C@@H](O[C@@H]2O[C@H](CO)[C@@H](O)[C@H](O)[C@H]2O)[C@@H]2C(CO)=C[C@@H](OC(=O)/C=C/c3ccc(O)cc3)[C@H]12` [Compound 1, E-6-O-p-coumaroyl scandoside methyl ester], the IC50 is 304 ± 12.2 µM in experiment [1] (setting [5]); 105 ± 14.5 µM in experiment [4]; 63.3 ± 4.56 µM in experiment [3] (IC50 BACE1, isolated compounds).
For the molecule `CC(=O)OCC1=C[C@H](O)[C@@H]2C(C(=O)O)=CO[C@@H](O[C@@H]3O[C@H](CO)[C@@H](O)[C@H](O)[C@H]3O)[C@H]12` [Compound 9, asperulosidic acid], the IC50 is 68.3 ± 5.11 µM in experiment [1] (IC50 AChE, isolated compounds); 80.3 ± 19.8 µM in experiment [2] (IC50 BChE); > 500 µM in experiment [3] (IC50 BACE1, isolated compounds).
For the molecule `COC(=O)C1=CO[C@@H](O[C@@H]2O[C@H](CO)[C@@H](O)[C@H](O)[C@H]2O)[C@@H]2C(CO)=C[C@@H](OC(=O)/C=C/c3ccc(O)cc3)[C@H]12` [Compound 2, 6-O-p-coumaroyl scandoside methyl ester], the IC50 in experiment [1] (setting [5]) came to 298 ± 22.7 µM; in experiment [4], 381 ± 42.7 µM; in experiment [3] (IC50 BACE1, isolated compounds), 121 ± 14.8 µM.
As for `COC(=O)C1=CO[C@@H](O[C@@H]2O[C@H](CO)[C@@H](O)[C@H](O)[C@H]2O)[C@@H]2C(CO)=C[C@@H](O)[C@H]12` [Compound 8, scandoside methyl ester], the IC50 in experiment [1] (setting [5]) is 158 ± 13.2 µM; in experiment [2] (read-out: IC50 BChE), 16.2 ± 2.05 µM; in experiment [3] (setting [6]) it was > 500 µM.
For `COC(=O)C1=CO[C@@H](O[C@@H]2O[C@H](CO)[C@@H](O)[C@H](O)[C@H]2O)[C@@H]2C(CO)=C[C@@H](OC(=O)/C=C/c3ccc(O)c(OC)c3)[C@H]12` [Compound 3, E-6-O-feruloyl scandoside methyl ester], the IC50 in experiment [1] (setting [5]) is 96.8 ± 5.29 µM; in experiment [2] (read-out: IC50 BChE), 116 ± 29.4 µM; in experiment [3] (IC50 BACE1, isolated compounds) it was 121 ± 11.9 µM.

(Values after article PMC7764330, “Bioassay-Guided Isolation of Anti-Alzheimer Active Components from the Aerial Parts of Hedyotis diffusa and Simultaneous Analysis for Marker Compounds” (Molecules, 2020).)
